Experiments:
[1] = test system: NOD blastocysts (ICM explants); test: NOD ES cell derivation from blastocysts in the presence of small molecules; format: cell-based, mouse (NOD/LtJ); settings: NOD/LtJ blastocysts, mESM with the inhibitors
From the text: NOD/ShiLtJ were obtained from the Jackson laboratory and bred in specific-pathogen-free animal facility. Control MEFs were made from 129SvJae mice. Non-NOD ES lines derived used in this study as controls were derived from matings between 129SvJae or B6D2F1 mice. To derive ES lines, ICM explants were derived from day 3.5 blastocysts following procedures previously described (Markoulaki et al., 2008). Where applicable, ES derivation medium was also supplemented with the indicated compounds (Table S2). Dissociation of the outgrowths by treatment with Trypsin was performed on day 5 after plating and the cells were further cultured in mESC derivation medium until colonies appeared (typically after 5-7 days). From then on, established ES lines were cultured in mESM condition supplemented with the indicated compounds. NOD […] ES lines were derived by similarly plating blastocysts in EpiSC-derivation medium (For 100 ml, we added 15 ml FBS (Hyclone), 5 ml KSR, 5 μl Lif (1×107 U ESGRO/ml; Chemicon), 100 μl Mek1 inhibitor (PD98059; Cell Signaling Technology), hFGF2 ([…]), 1 ml non-essential amino acids, 1 ml glutamine solution, and 1 ml pen/strep solution into DMEM/F12). ICM outgrowths were manually passaged after 5-7 days and were stably maintained in […] conditions. […]

[2] = test system: secondary transgenic MEF line (OSM); settings: Lyssiotis et al., 2009; cited from earlier work

SMILES: O=C1Cc2c([nH]c3ccc(Br)cc23)-c2ccccc2N1 [Kenpaullone, 9-bromo-7,12-dihydroindolo[3,2-d][1]benzazepin-6(5H)-one]
- # of ES lines derived [1]: 2
- ES derivation (% efficiency) [1]: (13%)
- replacement of Klf4 during iPS reprogramming [2]: replaces Klf4 during iPS reprogramming

Source: patent US20110088107A1, “COMPOSITIONS AND METHODS FOR DERIVING OR CULTURING PLURIPOTENT CELLS” (priority 2009, published 2011)
